Assays:
Type in all cases: cell-based
[1] = molecular target: T1, Nuclear factor erythroid 2-related factor 2 (Homo sapiens) (UniProt Q16236); assay: Induction of Nrf2-mediated ARE activity in human HepG2-ARE-C8 cells at 0.01 uM after 12 hrs by luciferase reporter gene assay relative to control
T1 sequence (whole entry): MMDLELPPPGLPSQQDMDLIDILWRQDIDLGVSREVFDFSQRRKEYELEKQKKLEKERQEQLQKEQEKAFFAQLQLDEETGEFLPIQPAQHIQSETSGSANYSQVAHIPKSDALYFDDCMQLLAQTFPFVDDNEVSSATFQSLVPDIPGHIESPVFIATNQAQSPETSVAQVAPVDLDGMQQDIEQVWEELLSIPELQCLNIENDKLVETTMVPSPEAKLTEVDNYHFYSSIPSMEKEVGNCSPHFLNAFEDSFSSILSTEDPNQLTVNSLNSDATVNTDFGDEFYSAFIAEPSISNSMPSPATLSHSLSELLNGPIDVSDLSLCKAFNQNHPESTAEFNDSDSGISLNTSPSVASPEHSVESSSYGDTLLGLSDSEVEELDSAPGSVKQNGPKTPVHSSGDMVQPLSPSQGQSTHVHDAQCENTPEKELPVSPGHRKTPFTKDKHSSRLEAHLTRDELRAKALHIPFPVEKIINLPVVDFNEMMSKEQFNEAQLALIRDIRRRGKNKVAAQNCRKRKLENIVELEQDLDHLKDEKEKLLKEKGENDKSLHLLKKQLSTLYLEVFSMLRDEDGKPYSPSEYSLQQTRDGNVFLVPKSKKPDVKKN

[2] = molecular target: T1, Nuclear factor erythroid 2-related factor 2 (Homo sapiens); assay: Induction of Nrf2-mediated ARE activity in human HepG2-ARE-C8 cells at 5 uM after 12 hrs by luciferase reporter gene assay relative to control
[3] = molecular target: T1, Nuclear factor erythroid 2-related factor 2 (Homo sapiens); assay: Induction of Nrf2-mediated ARE activity in human HepG2-ARE-C8 cells at 10 uM after 12 hrs by luciferase reporter gene assay relative to control
[4] = molecular target: T1, Nuclear factor erythroid 2-related factor 2 (Homo sapiens); assay: Induction of Nrf2-mediated ARE activity in human HepG2-ARE-C8 cells at 1 uM after 12 hrs by luciferase reporter gene assay relative to control
[5] = molecular target: T1, Nuclear factor erythroid 2-related factor 2 (Homo sapiens); assay: Induction of Nrf2-mediated ARE activity in human HepG2-ARE-C8 cells at 0.1 uM after 12 hrs by luciferase reporter gene assay relative to control

| Structure (SMILES) | fold change (FC) [1] | fold change (FC) [2] | fold change (FC) [3] | fold change (FC) [4] | fold change (FC) [5] |
| --- | --- | --- | --- | --- | --- |
| COc1cc2c(cc1OC)C1CN/C(=C\C(=O)c3cccc(Cl)c3)C(=O)N1CC2 (stereo not given) | 1.41 | 1.15 | 1.44 | 1.07 | 1.47 |
| COc1ccc2c(c1)CCN1C(=O)/C(=C/C(=O)c3ccccc3F)NCC21 (stereo not given) | 2.58 | 5.18 | 7.7 | 3.73 | 1.45 |
| O=C(/C=C1\NCC2c3ccccc3CCN2C1=O)c1ccc(Cl)cc1 (stereo not given) | 1.3 | 3.57 | 4 | 2.61 | 2.33 |
| Cc1ccc(C(=O)/C=C2\NCC3c4ccccc4CCN3C2=O)cc1 (stereo not given) | 2.01 | 4.42 | 5.22 | 3.25 | 3.3 |
| O=C(/C=C1\NCC2c3ccccc3CCN2C1=O)c1cccc(C(F)(F)F)c1 (stereo not given) | 2.22 | 3.14 | 3.25 | 1.76 | 1.7 |
| O=C(/C=C1\NCC2c3ccccc3CCN2C1=O)c1cccc([N+](=O)[O-])c1 (stereo not given) | 3.28 | 14.5 | 18.5 | 7.22 | 3.52 |
| O=C(/C=C1\NCC2c3ccccc3CCN2C1=O)c1cccc(Br)c1 (stereo not given) | 3.1 | 12 | 15.7 | 8.97 | 3.4 |
| O=C(/C=C1\NCC2c3ccccc3CCN2C1=O)c1ccc([N+](=O)[O-])cc1 (stereo not given) | 1.2 | 2.43 | 3.81 | 1.76 | 2.34 |
| O=C(/C=C1\NCC2c3ccccc3CCN2C1=O)c1ccc(F)c(F)c1 (stereo not given) | 2.12 | 5.47 | 6.38 | 3.23 | 2.25 |
| O=C(/C=C1\NCC2c3ccccc3CCN2C1=O)c1ccccc1F (stereo not given) | 2.5 | 16.5 | 16.9 | 8.85 | 3.64 |
| COc1ccc2c(c1)C1CN/C(=C\C(=O)c3cccc(F)c3)C(=O)N1CC2 (stereo not given) | 1.31 | 16.9 | 20.4 | 7.23 | 3.93 |
| COc1cccc2c1CCN1C(=O)/C(=C/C(=O)c3ccccc3)NCC21 (stereo not given) | 1 | 6.89 | 6.93 | 3.57 | 3.53 |
| COc1ccc2c(c1)C1CN/C(=C\C(=O)c3cccc(Cl)c3)C(=O)N1CC2 (stereo not given) | 2.26 | 6.49 | 7.28 | 4.53 | 2.28 |
| COc1cc2c(cc1OC)C1CN/C(=C\C(=O)c3cccc([N+](=O)[O-])c3)C(=O)N1CC2 (stereo not given) | 1.31 | 1.44 | 2.51 | 1.03 | 1.08 |
| COc1ccc(C(=O)/C=C2\NCC3c4ccccc4CCN3C2=O)cc1OC (stereo not given) | 1.52 | 2.11 | 2.15 | 1.93 | 1.77 |
| O=C(/C=C1\NCC2c3ccccc3CCN2C1=O)c1ccc(Cl)cc1Cl (stereo not given) | 1.68 | 1.78 | 2.49 | 1.42 | 1.1 |
| O=C(/C=C1\NCC2c3ccccc3CCN2C1=O)c1cc(F)cc(F)c1 (stereo not given) | 1.34 | 5.22 | 7.62 | 4.75 | 2.92 |
| COc1cc2c(cc1OC)C1CN/C(=C\C(=O)c3ccccc3)C(=O)N1CC2 (stereo not given) | 0.86 | 1.46 | 1.67 | 1.35 | 0.85 |
| COc1cccc2c1CCN1C(=O)/C(=C/C(=O)c3cccc(F)c3)NCC21 (stereo not given) | 0.79 | 4.85 | 3.7 | 4.02 | 1.43 |
| COc1ccc2c(c1)C1CN/C(=C\C(=O)c3ccccc3F)C(=O)N1CC2 (stereo not given) | 1.44 | 9.84 | 12.4 | 3.44 | 2.75 |
| O=C(/C=C1\NCC2c3ccccc3CCN2C1=O)c1cccc(Cl)c1 (stereo not given) | 1.94 | 14 | 16.5 | 10.7 | 3.77 |

Other lines, results leading:

| fold change (FC) [1] | fold change (FC) [2] | fold change (FC) [3] | fold change (FC) [4] | fold change (FC) [5] | Structure (SMILES) |
| --- | --- | --- | --- | --- | --- |
| 0.65 | 8.18 | 5.36 | 3.8 | 1.7 | COc1ccc2c(c1)CCN1C(=O)/C(=C/C(=O)c3ccccc3)NCC21 (stereo not given) |
| 1.07 | 0.97 | 1.1 | 0.95 | 0.8 | COc1cc2c(cc1OC)C1CN/C(=C\C(=O)c3ccccc3F)C(=O)N1CC2 (stereo not given) |
| 1.35 | 10.4 | 13 | 3.5 | 1.93 | COc1ccc2c(c1)C1CN/C(=C\C(=O)c3ccccc3)C(=O)N1CC2 (stereo not given) |
| 1.25 | 1.82 | 1.25 | 2.7 | 1.42 | COc1cc2c(cc1OC)C1CN/C(=C\C(=O)c3ccc(F)cc3)C(=O)N1CC2 (stereo not given) |
| 0.96 | 1.78 | 1.99 | 1.51 | 1.68 | COc1ccccc1C(=O)/C=C1\NCC2c3ccccc3CCN2C1=O (stereo not given) |
| 2.58 | 12.3 | 14 | 8 | 4.39 | O=C(/C=C1\NCC2c3ccccc3CCN2C1=O)c1ccc(F)cc1 (stereo not given) |
| 1.45 | 5.76 | 6.5 | 3.08 | 1.75 | COc1ccc2c(c1)C1CN/C(=C\C(=O)c3cccc([N+](=O)[O-])c3)C(=O)N1CC2 (stereo not given) |
| 1.93 | 5.89 | 4.26 | 2.98 | 2.83 | COc1cccc2c1CCN1C(=O)/C(=C/C(=O)c3ccccc3F)NCC21 (stereo not given) |
| 1.15 | 3.3 | 5.07 | 2.74 | 2.3 | COc1ccc(C(=O)/C=C2\NCC3c4ccccc4CCN3C2=O)cc1 (stereo not given) |
| 1.48 | 8.65 | 10 | 5.68 | 3.69 | COc1cccc(C(=O)/C=C2\NCC3c4ccccc4CCN3C2=O)c1 (stereo not given) |
| 2.31 | 1.68 | 1.09 | 1.05 | 0.93 | COc1cc2c(cc1OC)C1CN/C(=C\C(=O)c3cccc(F)c3)C(=O)N1CC2 (stereo not given) |
| 1.29 | 1.82 | 2.48 | 1.74 | 1.35 | COc1ccc2c(c1)C1CN/C(=C\C(=O)c3ccc(F)cc3)C(=O)N1CC2 (stereo not given) |
| 1.45 | 1.11 | 1.06 | 0.95 | 1.18 | COc1cccc(C(=O)/C=C2\NCC3c4cc(OC)c(OC)cc4CCN3C2=O)c1 (stereo not given) |
| 1.08 | 1.36 | 1.59 | 1.24 | 1.21 | COc1cccc(C(=O)/C=C2\NCC3c4cc(OC)ccc4CCN3C2=O)c1 (stereo not given) |
| 1.19 | 5.46 | 6.04 | 2.77 | 2.19 | O=C(/C=C1\NCC2c3ccccc3CCN2C1=O)c1ccccc1Cl (stereo not given) |
| 1.83 | 5.65 | 6.66 | 3.96 | 5.19 | COc1ccc2c(c1)CCN1C(=O)/C(=C/C(=O)c3cccc(F)c3)NCC21 (stereo not given) |
| 1.62 | 1.69 | 2.09 | 1.41 | 1.67 | O=C(/C=C1\NCC2c3ccccc3CCN2C1=O)c1ccc(-c2ccccc2)cc1 (stereo not given) |
| 1.28 | 2.41 | 2.8 | 1.3 | 1.29 | O=C(/C=C1\NCC2c3ccccc3CCN2C1=O)c1ccccc1[N+](=O)[O-] (stereo not given) |
